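Compound exposure: 48 hours, 5 concentrations, 96-well plates. GI50 = concentration required for 50% inhibition of growth.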 Calls of active or inactive are those of the source. No stated cut-off is given here; in the data, active = GI50 up to about 1.1 µM and inactive = higher.

Data on 23 compounds can be found in ChEMBL document CHEMBL1201862, “PubChem BioAssay data set” (2004).

Among the test systems are DMS-114; DMS-273; HOP-18; M19-MEL; SNB-78; KM-20L2; LXFL 529; RXF 631; XF498.
What all share (assay): NCI anticancer screen, dose series, 48 h

As to `COc1cccc(C2SCc3nc4ccccc4n32)c1` (stereo not drawn), the GI50 with DMS-114 is 21.3 µM (inactive); with DMS-273 it was 39.1 µM (inactive); in the assay on HOP-18, > 100 µM (inactive); in the assay with M19-MEL, 46.6 µM (inactive); in the assay on SNB-78, > 100 µM (inactive).
Turning to `Cc1nc2c(=O)[nH]c(=O)n(C)c2[nH]c1=O.c1ccncc1`, the GI50 in the assay with DMS-273, in the assay on KM-20L2, with LXFL 529 and in the assay with M19-MEL was > 100 µM (inactive) in each case.
As to `CCCCCCCCCCCCC(=O)CCCCC(=O)O`, the GI50 with DMS-114 was 18.8 µM (inactive); with DMS-273, 33.4 µM (inactive); in the assay with HOP-18, 16 µM (inactive); in the assay on LXFL 529, 18 µM (inactive); in the assay on M19-MEL, 18.2 µM (inactive); in the assay on RXF 631, 18.7 µM (inactive). Further, in the assay with SNB-78, the GI50 is 72.6 µM (inactive).
As for `C/C(CCN(C)C)=N\OC(=O)c1ccccc1`, the GI50 was > 100 µM (inactive) with DMS-114; > 100 µM (inactive) in the assay with DMS-273; 1.66 µM (inactive) with HOP-18; > 100 µM (inactive) with KM-20L2; > 100 µM (inactive) with LXFL 529; > 100 µM (inactive) in the assay on M19-MEL. Also, the GI50 in the assay with SNB-78 is > 100 µM (inactive).
Consider `N#CCC(=O)N/N=C1/C(=O)N(c2cc(Cl)ccc2Cl)C(=O)C(=O)C1c1nc2ccccc2s1` (stereo not drawn), for which the GI50 in the assay on DMS-114 was > 100 µM (inactive); in the assay with DMS-273 it was > 100 µM (inactive); in the assay on HOP-18, 72.9 µM (inactive); with KM-20L2 it was > 100 µM (inactive); with LXFL 529, > 100 µM (inactive); in the assay on M19-MEL, 77.1 µM (inactive). Further, the GI50 is 55.3 µM (inactive) in the assay on RXF 631 and > 100 µM (inactive) in the assay on SNB-78.
In the case of `O=c1c2cccnc2ncn1CCCN1CCCCC1`, the GI50 in the assay with DMS-114, in the assay with DMS-273, with M19-MEL, with SNB-78 and in the assay with XF498 was > 100 µM (inactive) each time.
With `COc1ccc(NN=C2C(=O)CCC2=O)cc1`, the GI50 with DMS-114, with DMS-273, in the assay on HOP-18, with M19-MEL, in the assay on RXF 631 and with SNB-78 was > 100 µM (inactive) each time.
As for `CCOC(=O)C1=C(Nc2ccc(Cl)c(Cl)c2)OC/C1=N\NC(=O)Cc1ccccc1`, the GI50 with DMS-114 is > 100 µM (inactive); in the assay on DMS-273, > 100 µM (inactive); with HOP-18, 87.7 µM (inactive); in the assay on KM-20L2 it was > 100 µM (inactive); in the assay on LXFL 529, > 100 µM (inactive); with M19-MEL it was > 100 µM (inactive). Further, the GI50 in the assay with SNB-78 and with XF498 was > 100 µM (inactive) throughout.
Consider `CC(=O)N(CCN)CCN`, for which the GI50 in the assay on DMS-114, in the assay on DMS-273, in the assay with KM-20L2, with LXFL 529, with M19-MEL and with RXF 631 was > 10 µM (inactive) each time. Further, the GI50 with SNB-78 was > 10 µM (inactive); in the assay on XF498, > 100 µM (inactive).
Turning to `OC(Cn1cncn1)(Cn1cncn1)c1ccc(Cl)cc1Cl`, the GI50 in the assay with DMS-114, in the assay with DMS-273, in the assay with HOP-18, in the assay on KM-20L2, in the assay on LXFL 529 and in the assay on M19-MEL was > 100 µM (inactive) each time. Moreover, the GI50 in the assay on SNB-78 is > 100 µM (inactive).
On to `CCC(C)n1c(C)nc2c1C(=O)c1ccccc1C2=O` (stereo not drawn), for which the GI50 was 34.2 µM (inactive) with DMS-273; 43.7 µM (inactive) in the assay on KM-20L2; 33.4 µM (inactive) in the assay with LXFL 529; 18.2 µM (inactive) in the assay on M19-MEL; > 100 µM (inactive) with SNB-78; 44.8 µM (inactive) in the assay with XF498.
Consider `O=C1CCC2(c3ccc(Cl)cc3)Nc3ccccc3N12` (stereo not drawn), for which the GI50 in the assay with DMS-114 is 45.2 µM (inactive); in the assay on HOP-18 it was 50.2 µM (inactive); in the assay on KM-20L2, > 100 µM (inactive); with LXFL 529, 47 µM (inactive); in the assay on M19-MEL, 69 µM (inactive); in the assay on RXF 631, > 100 µM (inactive). Also, the results for the GI50 in the assay on SNB-78 and in the assay with XF498 were > 100 µM (inactive) and 77.1 µM (inactive), respectively.
For the compound `COc1cc2c3c(c1OC)Oc1ccc(cc1)CC1c4c(cc(OC)c(OC)c4Oc4ccc(cc4)CC3N(C)CC2)CCN1C` (stereo not drawn), the GI50 is 19.8 µM (inactive) with DMS-114; 15.3 µM (inactive) with DMS-273; 25.9 µM (inactive) in the assay with HOP-18; 19.8 µM (inactive) in the assay on KM-20L2; 20.6 µM (inactive) in the assay on LXFL 529; 17.3 µM (inactive) in the assay on M19-MEL.
As for `O=C(NC(Cc1ccccc1)C(=O)CCl)OCc1ccccc1` (stereo not drawn), the GI50 with DMS-114 is 1.22 µM (inactive); in the assay on DMS-273, 5.02 µM (inactive); with HOP-18 it was 11.7 µM (inactive); in the assay on KM-20L2, 7.69 µM (inactive); in the assay on LXFL 529, 3.6 µM (inactive); with M19-MEL it was 13.7 µM (inactive). In addition, the GI50 in the assay with SNB-78 was 24.8 µM (inactive).
With `CC1=C(Cl)C=CP(=O)(OC(C)C)C1` (stereo not drawn), the GI50 with DMS-114 was > 100 µM (inactive); in the assay with HOP-18, > 100 µM (inactive); with KM-20L2 it was > 100 µM (inactive); in the assay with LXFL 529, > 100 µM (inactive); in the assay with M19-MEL it was > 100 µM (inactive); in the assay with RXF 631 it was 33.1 µM (inactive). Further, in the assay on SNB-78, the GI50 is > 100 µM (inactive).
`c1ccc(-c2ccnc3c2ccc2c(-c4ccccc4)ccnc23)cc1`: the GI50 was 0.382 µM (active) with DMS-114; 2.56 µM (inactive) with DMS-273; 2.34 µM (inactive) in the assay on HOP-18; 3.73 µM (inactive) in the assay with KM-20L2; 0.71 µM (active) with LXFL 529; 1.74 µM (inactive) in the assay on M19-MEL. Moreover, the GI50 in the assay on RXF 631 is 0.604 µM (active); with SNB-78, 5.05 µM (inactive).
Take `Cc1coc2c1C(=O)C(=O)c1ccccc1-2`: the GI50 is 0.161 µM (active) in the assay with DMS-114; 1.54 µM (inactive) with DMS-273; < 0.01 µM (active) in the assay with HOP-18; 3.36 µM (inactive) in the assay on KM-20L2; 0.403 µM (active) in the assay on LXFL 529; 1.73 µM (inactive) with SNB-78.
In the case of `CNS(=O)(=O)NN(C)S(=O)(=O)c1ccc(Cl)cc1`, the GI50 in the assay with DMS-114, in the assay on DMS-273, with KM-20L2, with LXFL 529, with M19-MEL and with RXF 631 was > 100 µM (inactive) throughout. The GI50 in the assay on XF498 is > 100 µM (inactive).
As to `CN1CCCC2(CCCc3ccccc32)C1` (stereo not drawn), the GI50 with DMS-114, with DMS-273, in the assay with KM-20L2, with LXFL 529, in the assay with M19-MEL and with RXF 631 was > 100 µM (inactive) each time. Besides, the GI50 with SNB-78 is > 100 µM (inactive).
Turning to `CNS(=O)(=O)NN(C)S(=O)(=O)c1ccc(C)cc1`, the GI50 in the assay with DMS-114, with KM-20L2 and in the assay with M19-MEL was > 100 µM (inactive) in each case.
Regarding `COCC(=O)[C@]1(O)Cc2c(O)c3c(c(O)c2[C@@H](OC2CC(N)C(O)C(C)O2)C1)C(=O)c1c(OC)cccc1C3=O` (stereo partly drawn), the GI50 in the assay on DMS-114 was 0.0718 µM (active); in the assay on DMS-273 it was 0.0391 µM (active); with KM-20L2, 0.111 µM (active); in the assay with LXFL 529, 0.0713 µM (active); with M19-MEL, 0.0676 µM (active); in the assay with SNB-78, 0.278 µM (active). Further, in the assay on XF498, the GI50 is 0.0573 µM (active).
For `COc1ccc(-c2onc(-c3c(C)cc(C)cc3C)c2C2=NCCN2)cc1`, the GI50 in the assay with HOP-18 was 10.9 µM (inactive); in the assay on KM-20L2, 28.3 µM (inactive); in the assay with LXFL 529, > 100 µM (inactive); in the assay on M19-MEL it was 86.5 µM (inactive); in the assay on RXF 631 it was 70.6 µM (inactive); in the assay on SNB-78 it was 35.2 µM (inactive).
For `COC(OC)c1cc2c(cc1C=O)OCO2`, the GI50 with DMS-114, with DMS-273, in the assay on KM-20L2, in the assay on M19-MEL and with SNB-78 was > 100 µM (inactive) each time.
